Measured values reported in article PMC6135860 (Neuropsychopharmacology, 2018).
Where two headings read alike, the source gives them in different places.

Legend:
[1] = molecular target: T1, mouse PDE4B3 dimer S133D(PKA) (Mus musculus, UniProt Q8VBU5, S118D); test: PDE4 kinetic cAMP hydrolysis coupled-enzyme assay; format: biochemical
T1 construct: hexahistidine; Proteos Inc; host or cells: Baculovirus-infected Sf9 insect cells
T1 sequence (Q8VBU5 1-721 S118D): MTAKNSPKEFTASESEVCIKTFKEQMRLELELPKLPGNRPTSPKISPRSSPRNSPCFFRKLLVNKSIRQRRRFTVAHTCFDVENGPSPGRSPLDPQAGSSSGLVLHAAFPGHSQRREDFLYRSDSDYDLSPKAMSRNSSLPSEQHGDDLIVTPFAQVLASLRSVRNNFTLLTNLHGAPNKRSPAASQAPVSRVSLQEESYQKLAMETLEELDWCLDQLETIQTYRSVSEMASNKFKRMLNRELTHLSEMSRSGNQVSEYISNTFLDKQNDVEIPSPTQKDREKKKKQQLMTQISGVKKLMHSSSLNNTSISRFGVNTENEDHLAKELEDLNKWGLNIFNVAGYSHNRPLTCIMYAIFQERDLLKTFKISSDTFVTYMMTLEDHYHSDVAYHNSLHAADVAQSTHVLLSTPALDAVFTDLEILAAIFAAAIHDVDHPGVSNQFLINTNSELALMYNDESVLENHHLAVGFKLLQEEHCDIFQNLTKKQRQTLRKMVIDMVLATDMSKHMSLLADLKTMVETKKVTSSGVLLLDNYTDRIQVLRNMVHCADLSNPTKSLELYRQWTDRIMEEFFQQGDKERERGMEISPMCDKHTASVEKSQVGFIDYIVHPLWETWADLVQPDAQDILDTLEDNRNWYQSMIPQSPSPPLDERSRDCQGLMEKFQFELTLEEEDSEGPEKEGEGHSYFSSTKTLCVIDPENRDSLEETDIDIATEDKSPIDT
Experimental: Kinetic assay of cAMP hydrolysis by purified PDE4 enzymes is measured by coupling the formation of the PDE4 reaction product 5′-adenosine monophosphate (AMP) to the oxidation of reduced nicotinamide adenine dinucleotide (NADH). This is accomplished with three coupling enzymes (yeast myokinase, pyruvate kinase, and lactate dehydrogenase), and allows fluorescent determination of reaction rates [19]. To measure inhibition of PDE4 enzymes by test compounds, data were percent normalized relative to controls and are presented as percent inhibition.
Kinetic assay of cAMP hydrolysis by purified PDE4 enzymes is measured by coupling the formation of the PDE4 reaction product 5′-adenosine monophosphate (AMP) to the oxidation of reduced nicotinamide adenine dinucleotide (NADH). This is accomplished with three coupling enzymes (yeast myokinase, pyruvate kinase, and lactate dehydrogenase), and allows fluorescent determination of reaction rates.^19 Assays were performed in 96-well plates in a total volume of 200 μl/well. Compounds were dissolved in dimethylsulfoxide (DMSO) and added to plates in a volume of 10 μl followed by addition of 165 μl of assay mix. Plates were pre-incubated at 25 °C for 10 min. The enzyme reaction was initiated by the addition of 25 μl of cAMP followed by thorough mixing. […] Initial rates (slopes) were determined from linear portions of the progress curves. […]

[2] = molecular target: PDE4 binding sites in humanized PDE4D mouse brain membranes; test: [3H]-rolipram radioligand binding to brain membranes
Experimental: Mice were killed by decapitation, and the brains were immediately dissected on ice and homogenized in binding buffer using a Polytron homogenizer (Brinkman Instruments, Westbury, NY). The membrane fraction of the homogenate was obtained by centrifugation at 15,000 × g for 15 min, and resuspension of the pellet in the binding buffer.
Mice were killed by decapitation, and the brains were immediately dissected on ice and homogenized in binding buffer (50 mM Tris-HCl, 5 mM MgCl2, pH 7.5) using a Polytron homogenizer (Brinkman Instruments, Westbury, NY). The membrane fraction of the homogenate was obtained by centrifugation at 15,000 g for 15 min, and resuspension of the pellet in the binding buffer^29.
At the end of the incubation, reactions were stopped by adding 5 ml of the ice-cold binding buffer and rapid vacuum filtration through glass fiber filters that had been soaked in 0.3% polyethyleneimine. The filters were then washed twice with 5 ml of the ice-cold binding buffer, and discs of filter paper were collected for measurement of radioactivity by liquid scintillation counting.

wild-type mice = test: Y-maze spontaneous alternation test; format: in vivo, mouse; conditions: oral gavage 1 h prior to test
Experimental: (§1) The test consists of a single 5 min trial, in which the mouse was allowed to explore all three arms of the Y-maze [31]. Spontaneous alternation (%) was defined as consecutive entries in three different arms, divided by the number of possible alternations (total arm entries minus 2).
(§2) Y-maze spontaneous alternation test. The Y-maze apparatus made of matt blue Plexiglas had three identical arms (L 40 cm, W 5 cm, H 15 cm) placed at 120° from each other. The test consisted of a single 5 min trial, in which the mouse was allowed to explore all three arms of the Y-maze. The start arm was varied between animals to avoid placement bias. Spontaneous Alternation (%) was defined as consecutive entries in 3 different arms, divided by the number of possible alternations (total arm entries minus 2). Mice with less than 8 arm entries during the 5-min trial were excluded from the analysis.

humanized PDE4D mice [3] = test: Y-maze spontaneous alternation test; format: in vivo, mouse; conditions: humanized PDE4D mice, oral gavage 1 h prior to test
Experimental: as §1, §2

humanized PDE4D mice [4] = test: Scopolamine-induced memory impairment in novel object recognition, 1 h inter-trial interval; format: in vivo, mouse
Experimental: The novel object recognition test was performed as described elsewhere. […] The duration each animal spent exploring the objects was recorded. Time spent exploring the identical objects in T1 was recorded as a1 and a2; time spent exploring the familiar and the novel objects in T2 was recorded as “a” and “b”, respectively. The following variables were calculated: e1 = a1 + a2, e2 = a + b, the relative discrimination index d2 = (b–a)/e2.
For the scopolamine-induced memory impairment models, a single dose of scopolamine (0.1 mg/kg, IP) was administered 30 min before the training session of the NOR. Animals treated with H-89 or vehicle were implanted with 26-gauge guide cannula unilaterally (AP −0.2 mm from Bregma, ML +1 mm from the midline, DV−2mm from skull surface) and rested for a week before any tests.
Novel object recognition. Mice were handled for 3-5 min for 5 days in a row. The novel object recognition test was performed in a Plexiglas open field box (L30 cm, W50 cm, H40 cm) as described elsewhere^64,65. Briefly, the task procedure consists of three phases: habituation, training (T1), and testing (T2). In the habituation phase (day 1), each animal is allowed to freely explore the apparatus for 10 min; then the animal is returned to its home cage. During the training phase (day 2), a single animal is placed in the center of the open field containing two identical objects located on the diagonal of the field, and allowed to explore for 5 min. After a retention interval after T1 of 24 h (long-term recall) or 1 h (scopolamine-impairment model), the animal was subjected to the T2 testing phase for 5 min, during which one familiar object and one novel object were presented. […] The duration each animal spent exploring the objects was recorded. Time spent exploring the identical objects in T1 was recorded as a1 and a2; time spent exploring the familiar and the novel objects in T2 was recorded as ‘a’ and ‘b’, respectively. The following variables were calculated: e1 = a1 + a2, e2 = a + b, the relative discrimination index d2 = (b – a)/e2.

ICR mice = test: Antidepressant-like effect models (tail suspension, forced swim); format: in vivo, mouse; conditions: Supplementary Figure S3
Description: Data are presented as mean ± S.E.M. (n = 10 male mice); * p < 0.05 and ** p < 0.01 (Student’s t-test) versus vehicle-treated group.

[5] = system: pCREB, BDNF, pSynapsin, PSD95 in humanized PDE4D mice; test: Immunoblot of hippocampal plasticity-related proteins; format: in vivo, mouse
Experimental: Hippocampal tissues were treated with lysis buffer for protein extraction. Then, 10–30 μg protein was separated using gel electrophoresis and transferred to polyvinylidene difluoride membranes, blocked with blocking buffer, and incubated with primary antibodies overnight at 4 °C. Labeled protein bands were detected using the enhanced chemiluminescence method and quantified using Quantity One 1-D Analysis Software.
Hippocampal tissues were lysed with RIPA buffer containing protease and phosphatase inhibitors and centrifuged at 13,000 rpm for 30 min at 4 °C. Aliquots of supernatant containing 10-30 μg protein were separated using 10% SDS-PAGE as described previously^66. Proteins from the gels were transferred to polyvinylidene difluoride membranes, blocked with blocking buffer (phosphate buffered saline containing 3% BSA and 0.1% sodium azide), and incubated with primary antibodies overnight at 4°C (phospho-CREB at Ser 133 (# ab32096, diluted 1:1000, abcam, Cambridge, MA), CREB (# sc-186, diluted 1:200, Santa Cruz Biotechnology, Dallas, Texas), β -actin (Catalog # ab8227, diluted 1:2000, abcam, Cambridge, MA)), Synapsin (#2312, diluted 1:1000, Cell Signaling Technology), Phospho-synapsin (#2311, diluted […], Cell Signaling Technology ), and PSD-95 (#2507, diluted 1:1000, Cell Signaling Technology, Danvers, MA). Labeled protein bands were detected using the enhanced chemiluminescence (ECL) method and quantified using Quantity One 1-D Analysis Software.

[6] = Pharmacokinetics and plasma exposure in mice
[7] = repeated oral dosing 14 days, hPDE4D mice

Which IC50 [1] does the source give for `O=C(O)Cc1ccc(Cc2cc(-c3cccc(Cl)c3)nc(C(F)(F)F)c2)cc1` [BPN14770] here?
Its IC50 is 2120 ± 527 nM.

And the Ki ([2]; hPDE4D, inhibition of [3H]-rolipram binding, read-out: Two-site Ki1)?
Its Ki is 2.8 ± 1.08 nM.

And the Ki ([2]; hPDE4D, inhibition of [3H]-rolipram binding, read-out: Two-site Ki2)?
Its Ki is 186 ± 19 nM.

And the Ki ([2]; read-out: One-site Ki)?
Its Ki is 82.1 ± 6.03 nM.

And the “MED for improved % alternation in Y-maze” value (wild-type mice)?
The value was 1 mg/kg.

What about the “MED for improved % alternation in Y-maze” value (humanized PDE4D mice [3]) of the same molecule?
Its value is 0.01 mg/kg.

What about the “MED for reversal of scopolamine memory deficit” value (humanized PDE4D mice [4]; acute administration 30 min prior to scopolamine, NOR 1 h inter-trial interval) of the same molecule?
The value was 0.03 mg/kg.

And the “memory benefit in the scopolamine impairment model with repeated dosing” value (humanized PDE4D mice [4]; repeated treatment for 14 days)?
The value was “maintained with repeated dosing”.

And the antidepressant-like effect (ICR mice)?
The antidepressant-like effect was “ineffective”.

And the “hippocampal CREB phosphorylation or BDNF expression after single acute dose” value ([5]; 1 h after dosing, data not shown)?
Its value is “no change”.

What about the “synapsin phosphorylation in prefrontal cortex and cortex” value ([5]; hPDE4D mice, repeated dosing, data not shown) of the same molecule?
Its value is “increased phosphorylation of synapsin was also observed”.

What about the “increase in hippocampal PSD95” value ([5]; repeated dosing, 0.03 mg/kg) of the same molecule?
Its value is 1.4 fold.

What about the “increase in hippocampal phosphorylation of synapsin” value ([5]; repeated dosing, 0.03 mg/kg) of the same molecule?
The value was 1.5 fold.

And the “elevation of hippocampal BDNF” value [5, 7]?
The value was 2.1 fold.

What about the “elevation of hippocampal CREB phosphorylation” value [5, 7] of the same molecule?
Its value is 2.3 fold.

And the “plasma exposure at the NOAEL” value ([6]; 1 mg/kg PO, 1 h post dose, data not shown)?
Its value is 1305 ± 113 ng/mL.

What about the Kp ([6]; C57bl/6, mouse, brain and plasma) of the same molecule?
Its Kp is 0.4 to 0.42.

And the bioavailability ([6]; C57bl/6, mouse, in vivo, po)?
The bioavailability was 70 to 80%.

And the half-life ([6]; C57bl/6, mouse, plasma and brain)?
The half-life was 8 to 10 h.
